According to the METLIN SMRT retention time set (Domingo-Almenara et al. 2019):

Assay: gradient 5% acetonitrile 3 min, to 50% in 2 min, to 85% in 15 min, held 3 min, 100 µL/min
Conditions: column: Zorbax Extend-C18 2.1 x 50 mm; eluents: water / acetonitrile, 0.1% formic acid
How it was run: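 In both positive and negative ionization mode, a quadrupole time-of-flight mass spectrometer coupled to HPLC analyzed pure standards run in mixtures of ~100 molecules. The Zorbax Extend-C18 column (2.1 × 50 mm, 1.8 μm) was operated at 100 μL/min with water and acetonitrile, each containing 0.1% formic acid. The dead volume was 40 μL and the dwell volume 900 μL. Retention time came from adduct peaks that were computationally picked and individually inspected by hand.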

CCn1c(C(=O)N2CCCC(C(=O)N3CCN(c4cccc(C)c4C)CC3)C2)cc2sccc21 (centres undefined)
RP-LC retention time: 1140 s

CC1CCN(c2cc(-c3noc(C(=O)NCc4ccco4)n3)ccn2)CC1
RP-LC retention time: 808 s

COc1ccc2c(c1)C1(CCN(C(=O)Nc3ccccc3C)C1)C(=O)N2 (centres undefined)
RP-LC retention time: 707 s

CNC(=O)C1CN(C(=O)c2cccc(Cl)c2)CC12CCCC2 (centres undefined)
RP-LC retention time: 726 s

COc1ccc(-c2nnc(Cc3nc(-c4cccs4)no3)o2)cc1
RP-LC retention time: 913 s

COc1ccc(Cl)cc1NC(=O)Cn1nc2c(Oc3ccccc3C)nccn2c1=O
RP-LC retention time: 930 s

CCN1C(=O)c2cccnc2Sc2cc(CNC(=O)COc3cccc(C)c3)ccc21
RP-LC retention time: 846 s

Cc1cc(=O)n(CC(=O)Nc2ccc(F)cc2C)c(N2CCOCC2)n1
RP-LC retention time: 644 s

CN1C(=O)c2ccccc2C(C(=O)NCCN(Cc2ccco2)C2CCCC2)C1c1cccs1 (centres undefined)
RP-LC retention time: 674 s

Cc1nc(CN2CC(c3nc(-c4cccs4)no3)C2)cs1
RP-LC retention time: 568 s

O=C(NCc1ccccc1Cl)c1ccc(=O)n(CCN2CCOCC2)c1
RP-LC retention time: 609 s

O=C(C1CCCN(Cc2nc(-c3ccncc3)no2)C1)N1CCN(c2ncccn2)CC1 (centres undefined)
RP-LC retention time: 559 s

CCOC(=O)Cc1csc(NC(=O)CSc2nnc(-c3ccncc3)o2)n1
RP-LC retention time: 632 s

COc1ccc(CN2C[C@@H]3C(=O)N(Cc4ccc5c(c4)OCO5)C(=O)[C@@H]3C2)c(OC)c1
RP-LC retention time: 691 s

Cc1nc2scc(CC(=O)O)n2c(=O)c1C
RP-LC retention time: 592 s

O=C(Nc1nccs1)c1ccc(Br)cc1F
RP-LC retention time: 783 s

O=C(NCCCN1CCCC1=O)c1cccc(N2CCNC(c3ccccc3)C2)n1 (centres undefined)
RP-LC retention time: 590 s

CC(=O)c1cccc(NC(=O)COc2ccccc2-c2nnc(-c3ccccc3)o2)c1
RP-LC retention time: 1190 s

CCCN1CCN(C(=O)CCc2c(C)c(C(=O)OCC)c(C)n2CC)CC1
RP-LC retention time: 645 s

COc1cccc(Cc2nc(Cn3c(C)nc4ccccc4c3=O)no2)c1
RP-LC retention time: 812 s

CC(=O)c1cccc(NC(=O)c2cc(C)nc3ccccc23)c1
RP-LC retention time: 654 s

NS(=O)(=O)c1ccc(CCNC(=O)Cc2cc(-c3cc4ccccc4o3)on2)cc1
RP-LC retention time: 736 s

O=C1CCN(C(=O)c2ccco2)CCCCCCN1
RP-LC retention time: 633 s

O=C(NC(Cc1ccccc1)c1nnc(N2CCSCC2)o1)C1CCCC1 (centres undefined)
RP-LC retention time: 806 s

Cn1nccc1-c1cccc(-c2noc(-c3ccc(Cl)cc3)n2)c1
RP-LC retention time: 1250 s

Cc1sc(-c2noc(C(C)C)n2)cc1S(=O)(=O)N1CCC(C(=O)NCc2ccco2)CC1
RP-LC retention time: 992 s

CCCS(=O)(=O)Nc1cccc(-c2cn3cccc(C)c3n2)c1
RP-LC retention time: 624 s

COC(=O)C(C)NC(=O)NCc1cccn1Cc1cccc(C)c1 (centres undefined)
RP-LC retention time: 827 s

COc1cc(NC(=O)CN2C(=O)C(C)(C)c3cc(Cl)ccc32)cc(OC)c1OC
RP-LC retention time: 867 s

CCCNC(=O)C1CCN(c2ccc(SCC(=O)Nc3ccc(OCC)cc3)nn2)CC1
RP-LC retention time: 639 s

CCN1CCCc2cc(C(=O)NC3CCCC3)sc21
RP-LC retention time: 961 s

CCCCNC(=O)C1Cc2cc(S(=O)(=O)N3CCCCC3)ccc2N1C(=O)CC (centres undefined)
RP-LC retention time: 885 s

O=C(NC1CCc2nn(CC3CC3)c(=O)n2CC1)c1cc(C2CC2)[nH]n1 (centres undefined)
RP-LC retention time: 627 s

COc1ccc2c(c1)C1(CCN(S(=O)(=O)c3cccs3)C1)C(=O)N2C (centres undefined)
RP-LC retention time: 871 s

COc1ccc(NS(=O)(=O)c2ccc(-c3c(C)noc3C)cc2)cc1Cl
RP-LC retention time: 945 s

CCN(CC)CCn1c(NCc2ccc(C)cc2)nc2ccccc21
RP-LC retention time: 584 s

CCOc1ccccc1NC(=O)N1CCCC1c1cc(CC)no1 (centres undefined)
RP-LC retention time: 833 s

COc1ccc(-c2csc(C)n2)cc1S(=O)(=O)N1CCN(c2ccccc2F)CC1
RP-LC retention time: 1110 s

O=C(Nc1nccn(-c2ccc(F)c(Cl)c2)c1=O)c1ccc2c(c1)OCO2
RP-LC retention time: 802 s

O=C(Cc1ccc(Cl)cc1)N1CCN(C(=O)c2nnn3c2COC(c2ccccc2)C3)CC1 (centres undefined)
RP-LC retention time: 921 s

O=C(O)c1nnn(-c2ccc3c(c2)OCO3)c1-c1cccnc1
RP-LC retention time: 602 s

Cc1ccc(CNC(=O)CN2C(=O)CCc3cc(Br)ccc32)cc1
RP-LC retention time: 917 s

CC(C)Cn1cc(CCNS(=O)(=O)c2ccccc2Cl)c2cccnc21
RP-LC retention time: 922 s

Nc1ncnc2c1nc(Br)n2C1O[C@H]2COP(=O)(O)O[C@@H]2[C@@H]1O (some centres undefined)
RP-LC retention time: 549 s

Cn1c(=O)c2c(nc3n2CC(=O)N(CCc2ccccc2)C3)n(C)c1=O
RP-LC retention time: 657 s

CCOC(=O)CCNC(=O)N1CCc2c([nH]c3ccccc23)C1c1ccccc1F (centres undefined)
RP-LC retention time: 941 s

NC(=O)C1CCN(C(=O)c2cn(-c3cccc(Cl)c3)nn2)CC1
RP-LC retention time: 646 s

CC1CCN(C(=O)Cn2c(CNC(=O)c3ccco3)nc3ccccc32)CC1
RP-LC retention time: 650 s

Cc1cnc(C(=O)NCC2Cn3cccc3C(=O)N2CC(C)C)cn1 (centres undefined)
RP-LC retention time: 706 s

COC(=O)c1c(NCCc2cccs2)c2ccc(F)cc2[nH]c1=O
RP-LC retention time: 766 s

C=CCNC(=O)C1CCCN(S(=O)(=O)c2cc(OC)ccc2OC)C1 (centres undefined)
RP-LC retention time: 723 s

Cc1cc2nc(C(=O)NC(C)C)c(=O)n(C)c2cc1C
RP-LC retention time: 747 s

CCCn1cc(S(=O)(=O)NCc2ccc(C)c(C)c2)c2cccnc21
RP-LC retention time: 984 s

CSc1nnc(-c2nn(C)c3c2CN(C(=O)c2ccc(Cl)cc2)CC3)n1C
RP-LC retention time: 736 s

CC(C)Oc1ccc(CNC(=O)C2=Cc3ccccc3OC2)cc1
RP-LC retention time: 1040 s

O=S(=O)(c1ccc2nc(N3CCN(Cc4ccc5c(c4)OCO5)CC3)cnc2c1)N1CCCCC1
RP-LC retention time: 728 s

CCOC(=O)CNC(=O)N1CCN(Cc2nc3cc(Cl)ccc3o2)CC1
RP-LC retention time: 644 s

CN1CCCc2cc(C(=O)NCc3cccnc3)sc21
RP-LC retention time: 592 s

O=C1NCCCn2nc(C3CCN(C(=O)Nc4cccc(C(F)(F)F)c4)CC3)cc21
RP-LC retention time: 721 s

Cc1ccc(NC(=O)NCC2(N3CCOCC3)CCOC2)cc1C (centres undefined)
RP-LC retention time: 615 s

CCS(=O)(=O)N1CCCc2cc(C(=O)NC(C)c3ccccc3)ccc21 (centres undefined)
RP-LC retention time: 870 s

COC(=O)c1cccc(-c2nc(C3CC(=O)N(c4ccc(F)c(Cl)c4)C3)no2)c1 (centres undefined)
RP-LC retention time: 1050 s

Cc1cccn2cc(C(=O)NCc3cccc(Cl)c3)nc12
RP-LC retention time: 777 s

CN(C(=O)c1cc2c(=O)n(C)c(=O)n(C)c2s1)c1cccc(Cl)c1
RP-LC retention time: 827 s

Cc1cccc(-c2nc3nc(C)cc(N4CCCC4)n3n2)c1
RP-LC retention time: 768 s

O=C(Nc1ccc(-c2cn3cccnc3n2)cc1)c1cc(Br)ccc1Cl
RP-LC retention time: 707 s

CN(Cc1ccccc1)C(=O)C1c2ccccc2C(=O)N(C)C1c1cccs1 (centres undefined)
RP-LC retention time: 877 s

Cc1ccc(-c2nc3ccc(Br)cn3c2Nc2ccccc2C)cc1
RP-LC retention time: 892 s

CCOC(=O)Cn1cc(S(=O)(=O)N2CCCCC2)ccc1=O
RP-LC retention time: 762 s
